Assay [1] concerns the target T1, JAK3 (Homo sapiens, UniProt P52333).
T1 construct: recombinant purified GST-tagged catalytic domain for each enzyme; purchased Invitrogen M4290
The experiment in a line: Jak Biochemical HTRF Assay (JAK3). Particulars: recombinant purified GST-tagged catalytic domain, [ATP] 2.9 μM, values given as range classes. The method in brief:
(§1)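 GST-tagged recombinant catalytic domain and biotinylated peptide substrate were preincubated with compound for 30 min at room temperature in kinase buffer with 2 mM DTT and 0.05% BSA. ATP then started a 120 min reaction. Phosphopeptide was detected by HTRF (Eu-pY20/streptavidin-Dylight 650, 665/615 nm ratio), and IC50 came from a 4-parameter fit of percent inhibition.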
Background: In TR-FRET formats the signal depends on donor and acceptor labels being close together.

For assay [2], the target named is T2, JAK2 (Homo sapiens, UniProt O60674).
T2 construct: recombinant purified GST-tagged catalytic domain for each enzyme; purchased Invitrogen M4290
The experiment in a line: Jak Biochemical HTRF Assay (JAK2). Particulars: recombinant purified GST-tagged catalytic domain, [ATP] 8.5 μM, values given as range classes. The method in brief: as §1

T1 sequence (P52333 822-1111 limits assumed): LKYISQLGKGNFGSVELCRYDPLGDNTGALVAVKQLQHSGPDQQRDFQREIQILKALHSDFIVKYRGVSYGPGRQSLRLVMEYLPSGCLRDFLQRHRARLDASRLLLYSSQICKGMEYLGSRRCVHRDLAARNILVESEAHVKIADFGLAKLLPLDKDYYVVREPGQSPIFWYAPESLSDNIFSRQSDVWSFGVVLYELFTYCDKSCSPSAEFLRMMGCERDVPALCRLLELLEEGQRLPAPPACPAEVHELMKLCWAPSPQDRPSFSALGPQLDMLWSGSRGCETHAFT
T2 sequence (O60674 849-1124 limits assumed): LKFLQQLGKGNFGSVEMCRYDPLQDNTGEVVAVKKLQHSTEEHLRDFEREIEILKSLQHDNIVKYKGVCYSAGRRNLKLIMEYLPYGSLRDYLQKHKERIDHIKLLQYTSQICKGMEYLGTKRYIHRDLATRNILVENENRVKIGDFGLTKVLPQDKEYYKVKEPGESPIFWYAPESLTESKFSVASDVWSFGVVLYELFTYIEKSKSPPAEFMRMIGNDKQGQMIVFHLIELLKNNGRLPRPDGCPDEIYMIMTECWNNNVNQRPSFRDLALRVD

For the compound `O=C(NCC(F)(F)F)[C@H]1CCCC[C@H]1Nc1cncc(-c2c[nH]c3ncc(F)cc23)c1` [Example 1-37, (1S,2R)-2-{[5-(5-fluoro-1H-pyrrolo[2,3-b]pyridin-3-yl)pyridin-3-yl]amino}-N-(2,2,2-trifluoroethyl)cyclohexane-carboxamide], the IC50 (usually the concentration that gives 50% inhibition) in assay [1] was at most 10 nM; in assay [2], 10 to 500 nM.

In the case of `Clc1cnc2[nH]cc(-c3cc(N4CCCC4c4nccs4)cnn3)c2c1` (centres unmarked) [Example 1-26, 5-chloro-3-{5-[2-(1,3-thiazol-2-yl)pyrrolidin-1-yl]pyridazin-3-yl}-1H-pyrrolo[2,3-b]pyridine], the IC50 in assay [1] and in assay [2] was 10 to 500 nM throughout.

In the case of `O=C(NCC(F)(F)F)[C@H]1CCCC[C@H]1Nc1cnnc(-c2c[nH]c3ncc(F)cc23)n1` [Example 1-21, (1S,2R)-2-{[3-(5-fluoro-1H-pyrrolo[2,3-b]pyridin-3-yl)-1,2,4-triazin-5-yl]amino}-N-(2,2,2-trifluoroethyl)cyclohexane-carboxamide], the IC50 in assay [1] is 10 to 500 nM; in assay [2] it was over 500 nM.

`CC(C(=O)NCC(F)(F)F)n1ccc2ncc(-c3c[nH]c4ncc(Cl)cc34)cc21` (centres unmarked) [Example 1-35, 2-[6-(5-chloro-1H-pyrrolo[2,3-b]pyridin-3-yl)-1H-pyrrolo[3,2-b]pyridin-1-yl]-N-(2,2,2-trifluoroethyl)propanamide]: the IC50 in assay [1] is at most 10 nM; in assay [2] it was 10 to 500 nM.

The values above are taken from patent US9096598B2 (Merck Sharp & Dohme Corp., priority 2011, dated 2015).
